The values below come from patent US12691115B2, “Methods for treatment of obesity, atherosclerosis, and thrombosis” (Marshall University Research Corporation, priority 2019, dated 2026).

For series [1] the following is noted: cited from earlier work.
For series [2], the system named is platelets. Particulars: cited from earlier work.
Series [3] has as its system WT mice. The experiment in a line: 7.5% FeCl3 induced carotid artery thrombosis model, drug given before injury. The class given is in vivo, mouse. The settings on record: for lowest effective dose with significant antithrombotic effect: gavage for one week; for lowest dose in inhibiting mouse thrombosis: in vivo. On the procedure: (§1) Murine carotid artery thrombosis model and tail bleeding assay. Detailed ferric chloride (FeCl3) induced carotid artery thrombosis model has been described before. […] The endpoints were set as follows: 1) blood flow has ceased for >30 seconds; or 2) occlusion is not seen after 30 minutes of FeCl3 injury. […] In some experiments, a jugular vein catheter prepared with P-10 tubing was placed for drug administration after 5 minutes of thrombus initiation. Thrombus formation was continually monitored using the endpoints mentioned above. Tail bleeding assay was either conducted on mice immediately after the thrombosis study or on mice that were not used for the in vivo thrombosis study. […] Tail bleeding assay was conducted on these mice immediately after the thrombosis study.

Series [4] deals with WT mice. The settings on record: mouse, in vivo; for mice considered to have bleeding side effects: male, 1 week. How it is done:
as §1

Series [5] has as its system WT mice fed a western diet. The experiment in a line: FeCl3 thrombosis model under hyperlipidemia (western diet). Particulars: TPI 1 mg/kg for one week, WD 4 weeks. The format is in vivo, mouse. An excerpt:
Examination of the effect of TYMP inhibition on thrombosis under hyperlipidemia. WT mice were fed a western diet (WD, TD.88137) for a total of 4 weeks. […] These mice were then subjected to the thrombosis study using the 7.5% FeCl3 induced thrombosis model.

A further series relates to C57Bl6 wild type mice. The series can be described thus: Western diet induced body weight gain. The format is in vivo, mouse. The settings on record: gavage 1 mg/kg/day, western diet TD.88137, vs saline, hydrochloride. An excerpt: To determine if inhibition of TYMP could attenuate or inhibit obesity in vivo, C57Bl6 wild type mice were fed with a western diet (TD.88137, 42% calories from fat), started from 6 to 8 […], to facilitate their weight gain. […] Mice received the same volume of saline feeding as a control. Body weight gain was monitored weekly, and data were presented as mean of the accumulated weight gain from each mice at each week. N=3 in the saline-feeding group, and 2 in the TPI-feeding group.

In series [6] the test system is WT mice. The series can be described thus: FeCl3 thrombosis model, bolus injection via jugular vein catheter 5 minutes after thrombus initiation. The class given is in vivo, mouse. On the procedure: Murine carotid artery thrombosis model and tail bleeding assay. Detailed ferric chloride (FeCl3) induced carotid artery thrombosis model has been described before. Vessel injury was induced by 7.5% FeCl3 solution to the carotid artery for 1 minute. […] The endpoints were set as follows: 1) blood flow has ceased for >30 seconds; or 2) occlusion is not seen after 30 minutes of FeCl3 injury. In this case, 30 minutes was assigned to that mouse for the statistical analysis. In some experiments, a jugular vein catheter prepared with P-10 tubing was placed for drug administration after 5 minutes of thrombus initiation. Thrombus formation was continually monitored using the endpoints mentioned above. Tail bleeding assay was either conducted on mice immediately after the thrombosis study or on mice that were not used for the in vivo thrombosis study.

Series [7] concerns platelets. The experiment in a line: Cellix flow chamber-based platelet adhesion and aggregation assay. The class given is cell-based, mouse. How it is done: Cellix flow chamber-based platelet adhesion and aggregation assay. Cellix flow chambers were coated with collagen 10 μg/mL in PBS. Whole blood was drawn from mouse IVC using 0.109 M sodium citrate as an anticoagulant, stained with Rhodamine 6G, and then used for the flow chamber mediated adhesion and aggregation assay. Some of the whole blood was treated with or without TPI before it was perfused into the chamber.

The test system of a further series is Apoe^−/− mice. The series can be described thus: Apoe−/− mice on WD gavage fed with TPI: liver fat accumulation and atherosclerotic lesions (Oil Red O). The class given is in vivo, mouse. Particulars: gavage 60 μg/Kg/day, 4 weeks, vs saline. An excerpt: As mentioned above, TYMP enhances platelet activation in vitro and promotes thrombosis in vivo, making TYMP a potential target for antithrombotic therapy. […] Age-matched Apoe^−/− mice on WD fed with saline were used as controls.

For series [8] the following is noted: as component of Lonsurf (TAS-102); no systemic bleeding observed; cited from earlier work.
The subject of another series is platelets in PRP. The experiment in a line: Mouse platelet aggregation assay (PRP). The class given is cell-based. From the text: Mouse platelet aggregation assay. […] Platelet-rich plasma (PRP) was used for platelet aggregation assay. […] Same volume of vehicle (DMSO or saline)-treated platelets was used as controls.
The next series deals with T1, TYMP and Lyn (Homo sapiens, UniProt P19971).
T1 construct: overexpressing full length human TYMP and Lyn in Cos-7 cells; expressed in transfected cells; host or cells: COS-7
T1 sequence (P19971 11-482): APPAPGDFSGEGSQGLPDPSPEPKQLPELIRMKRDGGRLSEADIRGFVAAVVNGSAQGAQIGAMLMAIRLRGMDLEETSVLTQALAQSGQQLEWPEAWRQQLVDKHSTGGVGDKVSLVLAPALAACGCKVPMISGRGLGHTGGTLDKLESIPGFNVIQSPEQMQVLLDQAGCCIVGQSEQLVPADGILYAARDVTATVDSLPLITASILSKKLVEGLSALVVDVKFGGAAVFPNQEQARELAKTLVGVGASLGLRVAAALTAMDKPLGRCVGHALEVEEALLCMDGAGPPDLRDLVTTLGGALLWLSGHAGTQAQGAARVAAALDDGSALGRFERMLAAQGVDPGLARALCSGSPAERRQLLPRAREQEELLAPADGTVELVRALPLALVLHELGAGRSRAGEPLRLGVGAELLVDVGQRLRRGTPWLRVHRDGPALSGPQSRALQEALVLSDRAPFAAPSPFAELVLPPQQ
The series can be described thus: Association of TYMP and Lyn (pull-down, Cos-7 cells). The format is binding. Particulars: TPI treatment. From the text:
Generation of fusion proteins to determine that TYMP binds to LYN through the SH3 binding domain. Human SH3 domain nucleotides (hLynSH3, amino acids 63-123) were amplified by PCR and cloned into a mammalian expression vector pEBG (Addgene, plasmid #22227) with an N-terminal glutathione S-transferase (GST) affinity tag (pEBG-GST-hLynSH3). A pCDNA6B/his-hTYMP plasmid vector was previously constructed. pEBG-GST-hLynSH3 and pCDNA6B/his-hTYMP plasmids were co-transfected into COS-7 cells, lysed in a Pierce™ IP Lysis Buffer (ThermoFisher Scientific), and used for GST pull down assay. Eluates were used for Western blot assay to confirm the presence of TYMP.
pEGFP-N1-human Lyn-GFP and pCDNA6B/his-hTYMP plasmids were also co-transfected into the COS-7 cells. TYMP was pulled down using immobilized Ni-NTA on magnetic sepharose beads (GE Healthcare Life Sciences) for His-tagged protein purification. His-hTYMP eluates were used for western blot assay for Lyn.

Another series deals with AKT. The series can be described thus: ADP-induced AKT phosphorylation in platelets (immunoblot). The class given is cell-based, mouse. The settings on record: 50 μM TPI, 2.5 μM ADP, especially the second phase. How it is done:
Evaluation of platelet signaling activation. Platelets in PRP were stimulated with 2.5 μM ADP for 0, 1, 3, and 5 minutes, then lysed with radioimmunoprecipitation assay (RIPA) buffer containing proteinase/phosphatase inhibitor cocktail. The lysates were subsequently used for AKT activation immunoblotting assays. ADP-stimulated p-selectin expression was analyzed by flow cytometry.
In general terms: Immunoblotting shows a protein as a band on a membrane.

Where [9] appears, read: bolus 17 and 1 mg/kg TPI, 5 min after injury.

Entries after “also recorded” stand apart in the source; their conditions may differ. Counter-ions that a name gives are not always drawn.

With `Oc1ncnc2c1ncn2[C@@H]1O[C@H](COC(c2ccccc2)(c2ccccc2)c2ccccc2)[C@@H](O)[C@H]1O` [KIN59, 5′-O-tritylinosine], in series [1], the thrombosis in vivo entry is given as “dramatically inhibited”. For the same compound, in the series on platelets [2], the “platelet activation in vitro” value is reported as “dramatically inhibited”.
For `[H]/N=C1\CCCN1Cc1[nH]c(=O)[nH]c(=O)c1Cl` [TPI, tipiracil hydrochloride], the in vivo thrombosis result with WT mice [3] (gavage 60 μg/kg/day for 3 days) is reported as “significantly inhibited”. Besides, the “occlusive thrombus formation in the carotid arteries” value with WT mice [3] (intraperitoneal 17 mg/kg once per day for three days) is on record as “completely inhibited”. In addition, in the series with WT mice [3] (intravenous injection 1.7 and 0.17 mg/kg, vs saline), the thrombosis entry is given as “significantly inhibited”. The “effective dose (anti-thrombotic)” value in the series with WT mice [3] (without significantly affecting hemostasis) is at most 60 µg/kg/day. For the same compound, in the series on WT mice [4], the “mice considered to have bleeding side effects” value (shortened to “mice considered”) is on record as 28.5% and the “frequency of bleeding compared with clopidogrel-treated mice” value is “significantly decreased”. Moreover, in series [5], the hyperlipidemia-enhanced thrombosis entry is “dramatically reduced”. Also, in the series with C57Bl6 wild type mice, the “WD-induced body weight gain” value is “reduced; also recorded: decreases”. In addition, the occlusive thrombus formation entry with WT mice [6] (TPI 50 μg/kg intravenous injection) is “did not inhibit”. Besides, in the series on WT mice [6] (setting [9]), the blood flow cessation entry is “no blood flow cessation” and the “thrombosis formation (time)” value is “significantly prolonged”. Also, in the series with WT mice [6] (bolus 5 min after injury), the “lowest effective dose on inhibiting the growth of the on-site thrombus” value is 0.05 to 0.1 mg/kg. The “platelet aggregation to the collagen-coated surface” value in the series on platelets [7] (50 μM TPI, WT whole blood, shear 65 dyn/cm^2, 3 minutes) is given as “significantly reduced”. Further, the “platelet adhesion to collagen” value in the series with platelets [7] (TYMP inhibition, collagen-coated flow chamber) is “does not affect”. In addition, in the series on Apoe^−/− mice, the “atherosclerotic plaque areas formation in aortic root” value is “attenuated” and the “lipid accumulation in livers” value is “attenuated”. For the same compound, the “systemic safety in clinical trials” value in series [8] is on record as “systemically safe”. Moreover, the “ADP-induced aggregation of Tymp−/− platelets” value in the series on platelets in PRP (50 μM TPI, 2.5 μM ADP, Tymp−/− platelets) is given as “had no effect”. In the series with platelets in PRP (50 μM TPI, 2.5 μM ADP, WT platelets), the “ADP-induced WT platelet aggregation” value is on record as “attenuated”. Besides, in the series on platelets in PRP (50 μM TPI, 2 minutes pretreatment), the CRP-induced platelet aggregation result is “completely blocked”. For the same compound, the collagen-induced platelet aggregation result in the series with platelets in PRP (WT platelets, different concentrations of TPI, collagen 1 μg/ml) is given as “dose-dependently inhibited”. The “CRP-induced platelet shape change” value in the series on platelets in PRP (dose-dependently at 250, 125 and 62.5 μM, 0.5 μg/ml CRP) is “inhibited”. Moreover, the “association of TYMP and Lyn” value on TYMP and Lyn was “disrupted”. Also, the “ADP-stimulated AKT phosphorylation” value in the series with AKT was “dramatically reduced”.
Regarding `CC(=O)Oc1ccccc1C(=O)O` [aspirin], in the series with WT mice [3] (gavage aspirin 0.5 mg/kg/day for 7 days), the inhibiting thrombosis result is “no effect”. Besides, in the series on WT mice [3], the “lowest effective dose with significant antithrombotic effect” value is given as 1 mg/kg/day and the “lowest dose in inhibiting mouse thrombosis” value is reported as 1 mg/kg. In addition, the “mice considered” value in the series on WT mice [4] worked out at 50%.
As to `COC(=O)[C@H](c1ccccc1Cl)N1CCc2sccc2C1` [clopidogrel], in the series with WT mice [3], the “lowest effective dose with significant antithrombotic effect” value amounted to 2.5 mg/kg/day and the “lowest dose in inhibiting mouse thrombosis” value amounted to 2.5 mg/kg. Also, the “mice considered” value with WT mice [4] is listed as 75%.
“tPA: tissue plasminogen activator (Activase), FDA-approved clot-busting drug”: the “lysis of established thrombi” value in the series on WT mice [6] (bolus 1 mg/kg, 5 min after vascular injury) is reported as “effectively lysed”. The “lowest effective dose on thrombolysis” value in the series on WT mice [6] (bolus 5 min after injury) lay in the range of 0.25 to 0.5 mg/kg. In the series with WT mice [6] (tPA 0.25 and 0.125 mg/kg), the thrombolytic action result is “no thrombolytic action”.
